Molecular target: T1, Human FXRα Ligand Binding Domain (FXRα LBD) (Homo sapiens, UniProt Q96RI1)
T1 construct: polyhistidine (N); made in house; host or cells: E. coli BL21 (DE3), pRSET-A vector
T1 sequence (Q96RI1 222-472 isoform Q96RI1-2): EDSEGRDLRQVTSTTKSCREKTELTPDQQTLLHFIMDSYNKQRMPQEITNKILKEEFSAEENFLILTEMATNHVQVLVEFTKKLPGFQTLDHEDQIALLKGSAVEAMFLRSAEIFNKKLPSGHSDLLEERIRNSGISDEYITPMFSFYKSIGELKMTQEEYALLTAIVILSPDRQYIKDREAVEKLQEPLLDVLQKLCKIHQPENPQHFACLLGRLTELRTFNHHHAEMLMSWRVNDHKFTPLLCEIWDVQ
Assay: FXR Affinity Binding Assay: ligand mediated cofactor peptide (SRC-1 LCD2, 676-700) interaction, time resolved fluorescence
Conditions: FXRα LBD-APC / europium labeled SRC-1 peptide, TRF signal, at least 2 hours at room temperature; read-out: Activity (pEC50) (converted)
Experimental: Determination of a ligand mediated cofactor peptide interaction to quantify ligand binding to the nuclear receptor Farnasoid X Receptor (FXR). The method measures the ability of putative ligands to modulate the interaction between the purified bacterial expressed FXRα (LBD) and a synthetic biotinylated peptide based on residues 676-700 of SRC-1(LCD2, 676-700). […] Detection of the associated complex is measured by time resolved fluorescence (TRF). The purified LBD of FXR is labeled with biotin then mixed with stoichiometric amounts of APC labeled streptavidin (Molecular Probes). The biotinylated peptide is then mixed with a ½ stoichiometric amount of europium labeled streptavidin (Wallac Inc). Each is then blocked with a 5 fold excess of biotin and allowed to equilibrate for 15 min. Equimolar amounts of receptor and peptide are mixed together and allowed to equilibrate for at least 30 min prior to the addition to either a variable or constant concentrations of the sample for which the affinity is to be determined. After equilibration, the time-resolved fluorescent signal is quantitated using a fluorescent plate reader. The affinity of the test compound is estimated from a plot of fluorescence versus concentration of test compound added.
Ligands that promote the complex formation induce a concentration-dependent increase in time-resolved fluorescent signal.
Human FXRα Ligand Binding Domain (FXRα LBD) was expressed in E.coli strain BL21 (DE3) as an amino-terminal polyhistidine tagged fusion protein. Expression was under the control of an IPTG inducible T7 promoter. DNA encoding this recombinant protein was subcloned into the pRSET-A expression vector (Invitrogen). The coding sequence of Human FXRα LBD was derived from Genbank accession number U 68233 (amino acids 222 to 472).
Routinely, 30-40 g cell paste (equivalent to 2-3 liters of the fermentation batch) was resuspended in 200-250 mL TBS, pH 7.2 (25mM Tris, 150 mM NaCl). Cells were lysed by passing 3 times through a French Press and cell debris was removed by centrifugation (30 minutes, 20,000 g, 4° C.). The cleared supernatant was filtered through course pre-filters, and TBS, pH 7.2, containing 500 mM imidazole was added to obtain a final imidazole concentration of 50 mM. This lysate was loaded onto a column (6×8 cm) packed with Sepharose [Ni^++ charged]Chelation resin (Pharmacia) and pre-equilibrated with TBS pH 7.21 50 mM imidazole. After washing to baseline absorbance with equilibration buffer, the column was washed with one column volume of TBS pH 7.2 containing 90 mM imidazole. FXRαLBD was eluted directly with 365 mM imidazole. Column fractions were pooled and dialyzed against TBS, pH 7.2, containing 0.5 mM EDTA and 5 mM DTT. The dialyzed protein sample was concentrated using Centri-prep 10 K (Amicon) and subjected to size exclusion, using a column (3×90 cm) packed with Sepharose S-75 resin (Pharmacia) pre-equilibrated with TBS, pH 7.2, containing 0.5 mM EDTA and 5 mM DTT.
Purified FXRα LBD was desalted/buffer exchanged using PD-10 gel filtration columns into PBS [100 mM NaPhosphate, pH 7.2, 150 mM NaCl]. FXRα LBD was diluted to approximately 10 μM in PBS and five-fold molar excess of NHS-LC-Biotin (Pierce) was added in a minimal volume of PBS. This solution was incubated with gentle mixing for 30 minutes at room temperature. The biotinylation modification reaction was stopped by the addition of 2000× molar excess of Tris-HCl, pH 8. The modified FXRα LBD was dialyzed against 4 buffer changes, each of at least 50 volumes, PBS containing 5 mM DTT, 2 mM EDTA and 2% sucrose.

Row | EC50 | SMILES
1 | 102 to 1000 nM | CCOC(=O)c1cccc(NCc2ccc(OCc3c(-c4ccccc4OC(F)(F)F)noc3C(C)C)cc2Cl)c1 [Example 95, Ethyl 3-{[2-chloro-4-({5-isopropyl-3-[2-(trifluoromethoxy)phenyl]-4-isoxazolyl}methoxy)benzyl]amino}benzoate]
2 | 102 to 1000 nM | Cc1cc(OCc2c(Cc3c(Cl)cccc3Cl)noc2C(C)C)ccc1N(C)Cc1cccc(C(=O)O)c1 [Example 15, 3-[(4-{[3-(2,6-Dichlorobenzyl)-5-isopropyl-4-isoxazolyl]methoxy}-2-dimethylanilino)methyl]benzoic acid]
3 | 102 to 1000 nM | CC(C)c1onc(-c2c(Cl)cccc2Cl)c1COc1ccc(OCc2cccc(C(=O)O)c2)c(Cl)c1 [Example 101, 3-[(2-Chloro-4-{[3-(2,6-dichlorophenyl)-5-isopropylisoxazol-4-yl]methoxy}phenoxy)-methyl]benzoic acid]
4 | 102 to 1000 nM | CCN(c1ccc(OCc2c(-c3c(Cl)cccc3Cl)noc2C(C)C)cc1)S(=O)(=O)c1ccc(C(=O)O)cc1 [Example 67, 4-{[(4-{[3-(2,6-Dichlorophenyl)-5-isopropylisoxazol-4-yl]methoxy}phenyl)(ethyl)amino]-sulfonyl}benzoic acid]
5 | 102 to 1000 nM | CC(C)c1onc(-c2c(Cl)cccc2Cl)c1COc1ccc(CNc2cccc(C(=O)O)c2)c(Cl)c1 [Example 94, 3-[(2-Chloro-4-{[3-(2,6-dichlorophenyl)-5-isopropylisoxazol-4-yl]methoxy}benzyl)amino]benzoic acid]
6 | 102 to 1000 nM | COC(=O)c1cccc(S(=O)(=O)Nc2ccc(OCc3c(-c4c(Cl)cccc4Cl)noc3C(C)C)cc2Cl)c1 [Example 36, Methyl 3-{[(2-chloro-4-{[3-(2,6-dichlorophenyl)-5-isopropylisoxazol-4-yl]methoxy}-phenyl)amino]sulfonyl}benzoate]
7 | 102 to 1000 nM | CC(C)c1onc(-c2c(Cl)cccc2Cl)c1COc1ccc(N(C)S(=O)(=O)c2cccc(C(=O)O)c2)cc1 [Example 49, 3-{[(4-{[3-(2,6-Dichlorophenyl)-5-isopropylisoxazol-4-yl]methoxy}phenyl)(methyl)-amino]sulfonyl}benzoic acid]
8 | 102 to 1000 nM | CC(C)c1onc(-c2c(Cl)cccc2Cl)c1COc1ccc(CN(C)c2cccc(C(=O)O)c2)c(Cl)c1 [Example 93, 3-[(2-Chloro-4-{[3-(2,6-dichlorophenyl)-5-isopropylisoxazol-4-yl]methoxy}benzyl)(methyl)amino]benzoic acid]
9 | 102 to 1000 nM | CCc1onc(Cc2c(Cl)cccc2Cl)c1COc1ccc(COc2cccc(C(=O)O)c2)c(Cl)c1 [Example 87, 3-[(2-Chloro-4-{[3-(2,6-dichlorobenzyl)-5-ethylisoxazol-4-yl]methoxy}benzyl)oxy]benzoic acid]
10 | 102 to 1000 nM | COC(=O)c1cccc(S(=O)(=O)Nc2ccc(OCc3c(-c4c(Cl)cccc4Cl)noc3C(C)C)cc2C)c1 [Example 37, Methyl 3-{[1(4-{[3-(2,6-dichlorophenyl)-5-isopropylisoxazol-4-yl]methoxy}-2-methylphenyl)amino]sulfonyl}benzoate]
11 | 102 to 1000 nM | CCc1onc(Cc2c(Cl)cccc2Cl)c1COc1ccc(N(C)S(=O)(=O)c2cccc(C(=O)O)c2)c(C)c1 [Example 74, 3-{[(4-{[3-(2,6-Dichlorobenzyl)-5-ethylisoxazol-4-yl]methoxy}-2-methylphenyl)(methyl)-amino]sulfonyl}benzoic acid]
12 | 102 to 1000 nM | COC(=O)c1ccoc1CN(C)c1ccc(OCc2c(-c3c(Cl)cccc3Cl)noc2C(C)C)cc1C [Example 6, Methyl 2-[(4-{[3-(2,6-dichlorophenyl)-5-isopropyl-4-isoxazolyl]methoxy}-2-dimethylanilino)methyl]-3-furoate]
13 | 102 to 1000 nM | CC(C)c1onc(-c2ccccc2OC(F)(F)F)c1COc1ccc(N(C)S(=O)(=O)c2cccc(C(=O)O)c2)c(Cl)c1 [Example 72, 3-{[[2-Chloro-4-({5-isopropyl-3-[2-(trifluoromethoxy)phenyl]isoxazol-4-yl}methoxy)-phenyl](methyl)amino]sulfonyl}benzoic acid]
14 | 1020 to 10000 nM | COC(=O)c1cccc(COc2ccc(OCc3c(-c4c(Cl)cccc4Cl)noc3C(C)C)cc2Cl)c1 [Example 99, Methyl 3-[(2-chloro-4-{[3-(2,6-dichlorophenyl)-5-isopropylisoxazol-4-yl]methoxy}-phenoxy)methyl]benzoate]
15 | < 100 nM | COC(=O)c1ccc(CN(C)c2ccc(OCc3c(-c4c(Cl)cccc4Cl)noc3C(C)C)cc2C)cc1 [Example 2, Methyl 4-[(4-{[3-(2,6-dichlorophenyl)-5-isopropyl-4-isoxazolyl]methoxy}-2-dimethylanilino)methyl]benzoate]
16 | 1020 to 10000 nM | COC(=O)c1ccc(COc2ccc(OCc3c(-c4c(Cl)cccc4Cl)noc3C(C)C)cc2C)cc1 [Example 98, Methyl 4-[(4-{[3-(2,6-dichlorophenyl)-5-isopropylisoxazol-4-yl]methoxy}-2-methylphenoxy)methyl]benzoate]
17 | 1020 to 10000 nM | Cc1cc(OCc2c(-c3c(Cl)cccc3Cl)noc2C(C)C)ccc1NC(=O)c1cccc(C(=O)O)c1 [Example 26, 3-[(4-{[3-(2,6-Dichlorophenyl)-5-isopropyl-4-isoxazolyl]methoxy}-2-methylanilino)carbonyl]benzoic acid]
18 | 102 to 1000 nM | Cc1cc(OCc2c(-c3c(Cl)cccc3Cl)noc2C(C)C)ccc1NS(=O)(=O)c1cccc(C(=O)O)c1 [Example 39, 3-{[(4-{[3-(2,6-Dichlorophenyl)-5-isopropylisoxazol-4-yl]methoxy}-2-methylphenyl)-amino]sulfonyl}benzoic acid]
19 | 102 to 1000 nM | CC(C)c1onc(-c2c(Cl)cccc2Cl)c1COc1ccc(N(C)C(=O)c2ccc(C(=O)O)cc2)c(Cl)c1 [Example 31, 4-[(2-Chloro-4-{[3-(2,6-dichlorophenyl)-5-isopropyl-4-isoxazolyl]methoxy}methylanilino)carbonyl]benzoic acid]
20 | 102 to 1000 nM | CC(C)c1onc(-c2c(Cl)cccc2Cl)c1COc1ccc(NC(=O)c2cccc(C(=O)O)c2)c(Cl)c1 [Example 28, 3-[(2-Chloro-4-{[3-(2,6-dichlorophenyl)-5-isopropyl-4-isoxazolyl]methoxy}anilino)carbonyl]benzoic acid]
21 | 102 to 1000 nM | CC(C)c1onc(-c2c(Cl)cccc2Cl)c1COc1ccc(NS(=O)(=O)c2ccc(C(=O)O)cc2)cc1 [Example 58, 4-{[(4-{[3-(2,6-Dichlorophenyl)-5-isopropylisoxazol-4-yl]methoxy}phenyl)amino]-sulfonyl}benzoic acid]
22 | 102 to 1000 nM | Cc1cc(OCc2c(-c3ccccc3OC(F)(F)F)noc2C(C)C)ccc1CSc1cccc(C(=O)O)c1 [Example 91, 3-{[4-({5-Isopropyl-3-[2-(trifluoromethoxy)phenyl]isoxazol-4-yl}methoxy)-2-methyl-benzyl]thio}benzoic acid]
23 | 102 to 1000 nM | Cc1cc(OCc2c(-c3ccccc3OC(F)(F)F)noc2C(C)C)ccc1N(C)C(=O)c1cccc(C(=O)O)c1 [Example 32, 3-{[4-({5-Isopropyl-3-[2-(trifluoromethoxy)phenyl]-4-isoxazolyl}methoxy)-2-dimethylanilino]carbonyl}benzoic acid]
24 | 102 to 1000 nM | Cc1cc(OCc2c(-c3c(Cl)cccc3Cl)noc2C(C)C)ccc1OCc1cccc(C(=O)O)c1 [Example 102, 3-[(4-{[3-(2,6-Dichlorophenyl)-5-isopropylisoxazol-4-yl]methoxy}-2-methylphenoxy)-methyl]benzoic acid]

From patent US7319109B2, “Farnesoid X receptor agonists” (Smith Kline Beecham Corporation, priority 2002, dated 2008)
